Assay results published in the supplement of paper PMC10307832.

Columns and labels:
Test in all cases: relative viability (nuclei count vs DMSO), 5 days (fraction); higher = more cells survive
[1] = compound: N#CC[C@H](C1CCCC1)n1cc(-c2ncnc3[nH]ccc23)cn1 [Ruxolitinib] + CC(=O)Nc1cccc(-n2c(=O)n(C3CC3)c(=O)c3c(Nc4ccc(I)cc4F)n(C)c(=O)c(C)c32)c1 [Trametinib] (partner 0.02 µM)
Outline: (§1)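 Lung cancer cell lines in 1536-well plates got either a single drug or a fixed anchor-drug dose together with five library-drug doses (not always all listed) in √10 steps, by pin tool, on the day after seeding. Nuclei were counted after 5 days, and relative viability is the treated-to-vehicle ratio of nuclei counts. Values are medians of duplicate plates.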

[2] = compound: CS(=O)(=O)c1ccc(C(=O)Nc2ccc(Cl)c(-c3ccccn3)c2)c(Cl)c1 [Vismodegib] + Cc1nc(NC(=O)N2CCC[C@H]2C(N)=O)sc1-c1ccnc(C(C)(C)C(F)(F)F)c1 [Alpelisib] (partner 2 µM)
Outline: as §1

[3] = compound: CS(=O)(=O)c1ccc(-c2cnc(N)c(C(=O)Nc3ccccc3)n2)cc1 [VE-821] + COc1cc2c(Oc3ccc(NC(=O)C4(C(=O)Nc5ccc(F)cc5)CC4)cc3F)ccnc2cc1OCCCN1CCOCC1 [Foretinib] (partner 0.25 µM)
Outline: as §1

[4] = compound: CS(=O)(=O)c1ccc(C(=O)Nc2ccc(Cl)c(-c3ccccn3)c2)c(Cl)c1 [Vismodegib] + CC1(C)CCC(c2ccc(Cl)cc2)=C(CN2CCN(c3ccc(C(=O)NS(=O)(=O)c4ccc(N[C@H](CCN5CCOCC5)CSc5ccccc5)c(S(=O)(=O)C(F)(F)F)c4)cc3)CC2)C1 [Navitoclax] (partner 0.5 µM)
Outline: as §1

NCI-H1975
relative viability ([1]; first compound 0.08 µM): 0.277 | relative viability ([1]; first compound 0.253 µM): 0.432 | relative viability ([1]; first compound 0.8 µM): 0.412 | relative viability ([1]; first compound 2.53 µM): 0.269 | relative viability ([1]; first compound 8 µM): 0.152 | relative viability ([2]; first compound 0.08 µM): 0.621 | relative viability ([2]; first compound 0.253 µM): 0.649 | relative viability ([2]; first compound 0.8 µM): 0.617 | relative viability ([2]; first compound 2.53 µM): 0.611 | relative viability ([2]; first compound 8 µM): 0.721 | relative viability ([3]; first compound 0.08 µM): 0.977 | relative viability ([3]; first compound 0.253 µM): 0.89 | relative viability ([3]; first compound 2.53 µM): 0.82 | relative viability ([3]; first compound 8 µM): 0.709 | relative viability ([4]; first compound 0.08 µM): 1.2 | relative viability ([4]; first compound 0.253 µM): 1.06 | relative viability ([4]; first compound 0.8 µM): 1.22 | relative viability ([4]; first compound 2.53 µM): 1.08 | relative viability ([4]; first compound 8 µM): 1.09

NCI-H1993
relative viability ([1]; first compound 0.08 µM): 0.433 | relative viability ([1]; first compound 0.253 µM): 0.734 | relative viability ([1]; first compound 0.8 µM): 0.573 | relative viability ([1]; first compound 2.53 µM): 0.49 | relative viability ([1]; first compound 8 µM): 0.443 | relative viability ([2]; first compound 0.08 µM): 0.684 | relative viability ([2]; first compound 0.253 µM): 0.655 | relative viability ([2]; first compound 0.8 µM): 0.713 | relative viability ([2]; first compound 2.53 µM): 0.687 | relative viability ([2]; first compound 8 µM): 0.629 | relative viability ([3]; first compound 0.08 µM): 0.84 | relative viability ([3]; first compound 0.253 µM): 0.736 | relative viability ([3]; first compound 0.8 µM): 0.595 | relative viability ([3]; first compound 2.53 µM): 0.737 | relative viability ([3]; first compound 8 µM): 0.724 | relative viability ([4]; first compound 0.08 µM): 1.1 | relative viability ([4]; first compound 0.253 µM): 0.913 | relative viability ([4]; first compound 0.8 µM): 0.884 | relative viability ([4]; first compound 2.53 µM): 0.759 | relative viability ([4]; first compound 8 µM): 0.705

NCI-H2009
relative viability ([1]; first compound 0.08 µM): 0.304 | relative viability ([1]; first compound 0.253 µM): 0.249 | relative viability ([1]; first compound 0.8 µM): 0.329 | relative viability ([1]; first compound 2.53 µM): 0.168 | relative viability ([1]; first compound 8 µM): 0.196 | relative viability ([2]; first compound 0.08 µM): 1.12 | relative viability ([2]; first compound 0.253 µM): 1.14 | relative viability ([2]; first compound 0.8 µM): 1.19 | relative viability ([2]; first compound 2.53 µM): 1.11 | relative viability ([2]; first compound 8 µM): 1.22 | relative viability ([3]; first compound 0.08 µM): 1.34 | relative viability ([3]; first compound 0.253 µM): 1.26 | relative viability ([3]; first compound 0.8 µM): 1.1 | relative viability ([3]; first compound 2.53 µM): 1.28 | relative viability ([3]; first compound 8 µM): 1.23 | relative viability ([4]; first compound 0.08 µM): 1.15 | relative viability ([4]; first compound 0.253 µM): 1.12 | relative viability ([4]; first compound 0.8 µM): 1.2 | relative viability ([4]; first compound 2.53 µM): 1.17 | relative viability ([4]; first compound 8 µM): 1.17

NCI-H2023
relative viability ([1]; first compound 0.08 µM): 0.57 | relative viability ([1]; first compound 0.253 µM): 0.524 | relative viability ([1]; first compound 0.8 µM): 0.654 | relative viability ([1]; first compound 2.53 µM): 0.4 | relative viability ([1]; first compound 8 µM): 0.565 | relative viability ([2]; first compound 0.08 µM): 0.584 | relative viability ([2]; first compound 0.253 µM): 0.534 | relative viability ([2]; first compound 0.8 µM): 0.626 | relative viability ([2]; first compound 2.53 µM): 0.546 | relative viability ([2]; first compound 8 µM): 0.495 | relative viability ([3]; first compound 0.08 µM): 0.998 | relative viability ([3]; first compound 0.253 µM): 0.785 | relative viability ([3]; first compound 0.8 µM): 0.511 | relative viability ([3]; first compound 2.53 µM): 0.383 | relative viability ([3]; first compound 8 µM): 0.343 | relative viability ([4]; first compound 0.08 µM): 0.937 | relative viability ([4]; first compound 0.253 µM): 1.09 | relative viability ([4]; first compound 0.8 µM): 1.08 | relative viability ([4]; first compound 2.53 µM): 0.995 | relative viability ([4]; first compound 8 µM): 0.96
